Measurements as given in patent US10821115B2, “Compounds that inhibit Mcl-1 protein” (priority 2017, dated 2020).

How the values were obtained:
[1] = tested on: human multiple myeloma cell line, OPM-2; assay: Cell viability assay (OPM-2 10 FBS), CellTiter-Glo; assay type: cell-based; conditions: Homo sapiens, OPM-2, 16 h, read-out: OPM-2 10% FBS IC50 IP, OPM-2 cells, 10% FBS, 16 h, CellTiter-Glo
Outline: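 Cells were seeded at 3000 cells/well in RPMI 1640 with 10% FBS and exposed to serially diluted compounds for 16 h at 37 °C, 5% CO2.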

[2] = target: recombinant human Mcl-1 (residues 171-327) / Bim interaction (Homo sapiens (Human), UniProt Q07820); assay: biochemical; assay type: binding; conditions: TR-FRET, Mcl-1(171-327) / biotin-Bim (51-76); read-out: Mcl-1 HTRF IC50
recombinant human Mcl-1 (residues 171-327) / Bim interaction, sequence (Q07820 171-327): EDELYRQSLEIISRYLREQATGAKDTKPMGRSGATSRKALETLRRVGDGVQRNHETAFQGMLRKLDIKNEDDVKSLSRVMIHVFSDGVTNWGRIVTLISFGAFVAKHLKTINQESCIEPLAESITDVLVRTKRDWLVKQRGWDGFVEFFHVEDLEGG

Row | Compound | IC50 [1] | IC50 [2]
1 | C#C[C@@]1(OCCN2CCOCC2)/C=C/C[C@H](C)[C@@H](C)S(=O)(=O)NC(=O)c2ccc3c(c2)N(C[C@@H]2CC[C@H]21)C[C@@]1(CCCc2cc(Cl)ccc21)CO3 [Example 100505, (1S,3′R,6′R,7′R,8′E,11′S,12′R)-6-chloro-7′-ethynyl-11′,12′-dimethyl-7′-(2-(4-morpholinyl)ethoxy)-3,4-dihydro-2H,15′H-spiro[naphthalene-1,22′-[20]oxa[13]thia[1,14]diazatetracyclo [14.7.2.0~3,6~.0~19,24~]pentacosa[8,16,18,24]tetraen]-15′-one 13′,13′-dioxide] | 137 nM | 0.165 nM
2 | CO[C@@]1(C#CCCN2CCOC[C@@H]2C)/C=C/C[C@H](C)[C@@H](C)S(=O)(=O)NC(=O)c2ccc3c(c2)N(C[C@@H]2CC[C@H]21)C[C@@]1(CCCc2cc(Cl)ccc21)CO3 [Example 100506, (1S,3′R,6′R,7′S,8′E,11′S,12′R)-6-chloro-7′-methoxy-11′,12′-dimethyl-7′-(4-((3S)-3-methyl-4-morpholinyl)-1-butyn-1-yl)-3,4-dihydro-2H,15′H-spiro[naphthalene-1,22′-[20]oxa[13]thia[1,14]diazatetracyclo [14.7.2.0~3,6~.0~19,24~]pentacosa[8,16,18,24]tetraen]-15′-one 13′,13′-dioxide] | 1270 nM | 0.497 nM
3 | CO[C@@]1(Cc2ncco2)/C=C/C[C@H](C)[C@@H](C)S(=O)(=O)NC(=O)c2ccc3c(c2)N(C[C@@H]2CC[C@H]21)C[C@@]1(CCCc2cc(Cl)ccc21)CO3 [Example 100508, (1S,3′R,6′R,7′S,8′E,11′S,12′R)-6-chloro-7′-methoxy-11′,12′-dimethyl-7′-(1,3-oxazol-2-ylmethyl)-3,4-dihydro-2H,15′H-spiro[naphthalene-1,22′-[20]oxa[13]thia[1,14]diazatetracyclo [14.7.2.0~3,6~.0~19,24~]pentacosa[8,16,18,24]tetraen]-15′-one 13′,13′-dioxide] | 2500 nM | 2.73 nM
4 | CO[C@@]1(CC(=O)NCCCl)/C=C/C[C@H](C)[C@@H](C)S(=O)(=O)NC(=O)c2ccc3c(c2)N(C[C@@H]2CC[C@H]21)C[C@@]1(CCCc2cc(Cl)ccc21)CO3 [Example 100509, N-(2-chloroethyl)-2-((1S,3′R,6′R,7′S,8′E,11′S,12′R)-6-chloro-7′-methoxy-11′,12′-dimethyl-13′,13′-dioxido-15′-oxo-3,4-dihydro-2H-spiro[naphthalene-1,22′-[20]oxa[13]thia[1,14]diazatetracyclo [14.7.2.0~3,6~.0~19,24~]pentacosa[8,16,18,24]tetraen]-7′-yl)acetamide] | 361 nM | 0.057 nM
5 | CO[C@@]1(Cc2nnc(C)o2)/C=C/C[C@H](C)[C@@H](C)S(=O)(=O)NC(=O)c2ccc3c(c2)N(C[C@@H]2CC[C@H]21)C[C@@]1(CCCc2cc(Cl)ccc21)CO3 [Example 100512, (1S,3′R,6′R,7′S,8′E,11′S,12′R)-6-chloro-7′-methoxy-11′,12′-dimethyl-7′-((5-methyl-1,3,4-oxadiazol-2-yl)methyl)-3,4-dihydro-2H,15′H-spiro[naphthalene-1,22′-[20]oxa[13]thia[1,14]diazatetracyclo [14.7.2.0~3,6~.0~19,24~]pentacosa[8,16,18,24]tetraen]-15′-one 13′,13′-dioxide] | 1490 nM | 0.415 nM
6 | COCC[C@@H]1[C@@H](C)C/C=C/[C@@](O)(C2SCCCS2)[C@@H]2CC[C@H]2CN2C[C@@]3(CCCc4cc(Cl)ccc43)COc3ccc(cc32)C(=O)NS1(=O)=O [Example 100513, (1S,3′R,6′R,7′S,8′E,11′S,12′R)-6-chloro-7′-(1,3-dithian-2-yl)-7′-hydroxy-12′-(2-methoxyethyl)-11′-methyl-3,4-dihydro-2H,15′H-spiro[naphthalene-1,22′-[20]oxa[13]thia[1,14]diazatetracyclo [14.7.2.0~3,6~.0~19,24~]pentacosa[8,16,18,24]tetraen]-15′-one 13′,13′-dioxide] | 288 nM | 0.071 nM
7 | COCC[C@@H]1[C@@H](C)C/C=C/[C@](OC)(C2SCCCS2)[C@@H]2CC[C@H]2CN2C[C@@]3(CCCc4cc(Cl)ccc43)COc3ccc(cc32)C(=O)NS1(=O)=O [Example 100515, (1S,3′R,6′R,7′R,8′E,11′S,12′R)-6-chloro-7′-(1,3-dithian-2-yl)-7′-methoxy-12′-(2-methoxyethyl)-11′-methyl-3,4-dihydro-2H,15′H-spiro[naphthalene-1,22′-[20]oxa[13]thia[1,14]diazatetracyclo [14.7.2.0~3,6~.0~19,24~]pentacosa[8,16,18,24]tetraen]-15′-one 13′,13′-dioxide] | 585 nM | 0.132 nM
8 | Cc1nc([C@]2(O)/C=C/C[C@H](C)[C@@H](C)S(=O)(=O)NC(=O)c3ccc4c(c3)N(C[C@@H]3CC[C@H]32)C[C@@]2(CCCc3cc(Cl)ccc32)CO4)cs1 [Example 100516, (1S,3′R,6′R,7′S,8′E,11′S,12′R)-6-chloro-7′-hydroxy-11′,12′-dimethyl-7′-(2-methyl-1,3-thiazol-4-yl)-3,4-dihydro-2H,15′H-spiro[naphthalene-1,22′-[20]oxa[13]thia[1,14]diazatetracyclo [14.7.2.0~3,6~.0~19,24~]pentacosa[8,16,18,24]tetraen]-15′-one 13′,13′-dioxide] | 1900 nM | 3.36 nM
9 | CO[C@@]1(c2csc(C)n2)/C=C/C[C@H](C)[C@@H](C)S(=O)(=O)NC(=O)c2ccc3c(c2)N(C[C@@H]2CC[C@H]21)C[C@@]1(CCCc2cc(Cl)ccc21)CO3 [Example 100517, (1S,3′R,6′R,7′S,8′E,11′S,12′R)-6-chloro-7′-methoxy-11′,12′-dimethyl-7′-(2-methyl-1,3-thiazol-4-yl)-3,4-dihydro-2H,15′H-spiro[naphthalene-1,22′-[20]oxa[13]thia[1,14]diazatetracyclo [14.7.2.0~3,6~.0~19,24~]pentacosa[8,16,18,24]tetraen]-15′-one 13′,13′-dioxide] | 3460 nM | 1.06 nM
10 | CO[C@@]1(C#CCN2CCN3CCOC[C@@H]3C2)/C=C/C[C@H](C)[C@@H](C)S(=O)(=O)NC(=O)c2ccc3c(c2)N(C[C@@H]2CC[C@H]21)C[C@@]1(CCCc2cc(Cl)ccc21)CO3 [Example 100518, (1S,3′R,6′R,7′S,8′E,11′S,12′R)-6-chloro-7′-(3-((9aS)-hexahydropyrazino[2,1-c][1,4]oxazin-8(1H)-yl)-1-propyn-1-yl)-7′-methoxy-11′,12′-dimethyl-3,4-dihydro-2H,15′H-spiro[naphthalene-1,22′-[20]oxa[13]thia[1,14]diazatetracyclo [14.7.2.0~3,6~.0~19,24~]pentacosa[8,16,18,24]tetraen]-15′-one 13′,13′-dioxide] | 668 nM | 0.427 nM
11 | COCC[C@@H]1[C@@H](C)C/C=C/[C@](C=O)(OC)[C@@H]2CC[C@H]2CN2C[C@@]3(CCCc4cc(Cl)ccc43)COc3ccc(cc32)C(=O)NS1(=O)=O [Example 100520, (1S,3′R,6′R,7′S,8′E,11′S,12′R)-6-chloro-7′-methoxy-12′-(2-methoxyethyl)-11′-methyl-15′-oxo-3,4-dihydro-2H-spiro[naphthalene-1,22′-[20]oxa[13]thia[1,14]diazatetracyclo [14.7.2.0~3,6~.0~19,24~]pentacosa[8,16,18,24]tetraene]-7′-carbaldehyde 13′,13′-dioxide] | 1690 nM | 0.549 nM
